Laboratory results from PubChem BioAssay (NCI).
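96-well plates; 48 h exposure; 5 concentrations. Endpoints by linear interpolation between flanking doses. Not reached: highest tested concentration assigned. Abbreviation: GI50, concentration required for 50% inhibition of growth. TGI: concentration producing complete growth inhibition.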

Tests used:
Assay in all cases: NCI anticancer screen, dose series, 48 h
[1] = test system: SK-MEL-5 melanoma
[2] = test system: PC-3 prostate
[3] = test system: NCI-H522 lung
[4] = test system: CCRF-CEM leukemia
[5] = test system: U251 CNS
[6] = test system: NCI-H460 lung
[7] = test system: SK-MEL-2 melanoma
[8] = test system: MDA-MB-435
[9] = test system: RXF 393 renal
[10] = test system: SF-268 CNS
[11] = test system: OVCAR-5 ovarian
[12] = test system: UACC-62 melanoma
[13] = test system: A549 NSCLC
[14] = test system: NCI-H23 lung
[15] = test system: MCF7 breast
[16] = test system: OVCAR-4 ovarian
[17] = test system: UACC-257 melanoma
[18] = test system: HL-60(TB) leukemia
[19] = test system: 786-0 renal
[20] = test system: T-47D breast
[21] = test system: TK-10 renal
[22] = test system: COLO 205 colon
[23] = test system: LOX IMVI melanoma
[24] = test system: MDA-MB-231 breast
[25] = test system: EKVX NSCLC
[26] = test system: A498 renal
[27] = test system: SW-620 colon
[28] = test system: HOP-92 NSCLC
[29] = test system: BT-549 breast
[30] = test system: RPMI-8226 leukemia
[31] = test system: HCC-2998 colon
[32] = test system: SR leukemia
[33] = test system: K-562 leukemia
[34] = test system: UO-31 renal
[35] = test system: SNB-75 CNS
[36] = test system: ACHN renal
[37] = test system: SNB-19 CNS
[38] = test system: MDA-MB-468 breast
[39] = test system: M14 melanoma
[40] = test system: OVCAR-8 ovarian
[41] = test system: MOLT-4 leukemia
[42] = test system: MALME-3M melanoma
[43] = test system: DU-145 prostate
[44] = test system: SN12C renal
[45] = test system: KM12 colon
[46] = test system: HT29 colon
[47] = test system: HCT-116 colon
[48] = test system: CAKI-1 renal
[49] = test system: OVCAR-3 ovarian
[50] = test system: NCI-H226 lung
[51] = test system: HCT-15 colon
[52] = test system: HS 578T breast
[53] = test system: SF-539 CNS
[54] = test system: SK-MEL-28 melanoma
[55] = test system: SK-OV-3 ovarian
[56] = test system: HOP-62 NSCLC
[57] = test system: NCI/ADR-RES ovarian
[58] = test system: IGROV1 ovarian
[59] = test system: SF-295 CNS

O=C(CSc1nnc(-c2ccc(-c3nc4ccc(Cl)cc4[nH]3)cc2)o1)Nc1ccccc1
GI50 [1]: 3.72 µM | TGI [1]: 14.5 µM | GI50 [2]: 1.82 µM | TGI [2]: 5.04 µM | GI50 [3]: 2.74 µM | TGI [3]: 10.6 µM | GI50 [4]: 7.3 µM | TGI [4]: 68.8 µM | GI50 [5]: 4.54 µM | TGI [5]: 17.9 µM | GI50 [6]: 0.9 µM | TGI [6]: 2.97 µM | GI50 [7]: 14.9 µM | TGI [7]: 30.5 µM | GI50 [8]: 2.17 µM | TGI [8]: 7.11 µM | GI50 [9]: 2.38 µM | TGI [9]: 6.52 µM | GI50 [10]: 2.44 µM | TGI [10]: 6.71 µM | GI50 [11]: 7.42 µM | TGI [11]: 27.2 µM | GI50 [12]: 6.71 µM | TGI [12]: 19.5 µM | GI50 [13]: 2.57 µM | TGI [13]: 11.3 µM | GI50 [14]: 3.04 µM | TGI [14]: 10.1 µM | GI50 [15]: 7.37 µM | TGI [15]: > 100 µM | GI50 [16]: 3.02 µM | TGI [16]: 11 µM | GI50 [17]: 5.91 µM | TGI [17]: 21.8 µM | GI50 [18]: 16.4 µM | TGI [18]: > 100 µM | GI50 [19]: 1.52 µM | TGI [19]: 3.44 µM | GI50 [20]: 17.1 µM | TGI [20]: 41.4 µM | GI50 [21]: 20.9 µM | TGI [21]: 39 µM | GI50 [22]: 14.9 µM | TGI [22]: 41.9 µM | GI50 [23]: 1.83 µM | TGI [23]: 4.48 µM | GI50 [24]: 3.26 µM | TGI [24]: 11.9 µM | GI50 [25]: 4.86 µM | TGI [25]: 25.6 µM | GI50 [26]: 15.2 µM | TGI [26]: 28.5 µM | GI50 [27]: 3.54 µM | TGI [27]: 15.9 µM | GI50 [28]: 2.33 µM | TGI [28]: 8.78 µM | GI50 [29]: 2.98 µM | TGI [29]: 17 µM | GI50 [30]: 15.5 µM | TGI [30]: > 100 µM | GI50 [31]: 32.8 µM | TGI [31]: > 100 µM | GI50 [32]: 16.3 µM | TGI [32]: > 100 µM | GI50 [33]: 3.58 µM | TGI [33]: > 100 µM | GI50 [34]: 10.8 µM | TGI [34]: 22.9 µM | GI50 [35]: 1.65 µM | TGI [35]: 4.8 µM | GI50 [36]: 2.64 µM | TGI [36]: 11 µM | GI50 [37]: 3.26 µM | TGI [37]: 12.2 µM | GI50 [38]: 15.6 µM | TGI [38]: 30 µM | GI50 [39]: 3.39 µM | TGI [39]: 14.1 µM | GI50 [40]: 3.88 µM | TGI [40]: 18 µM | GI50 [41]: 8.63 µM | TGI [41]: > 100 µM | GI50 [42]: 1.99 µM | TGI [42]: 5.34 µM | GI50 [43]: 2.44 µM | TGI [43]: 5.48 µM | GI50 [44]: 3.26 µM | TGI [44]: 13.8 µM | GI50 [45]: 8.4 µM | TGI [45]: 27.4 µM | GI50 [46]: 4.5 µM | TGI [46]: 53.6 µM | GI50 [47]: 3.95 µM | TGI [47]: 41.1 µM | GI50 [48]: 1.9 µM | TGI [48]: 3.89 µM | GI50 [49]: 3.3 µM | TGI [49]: 11.3 µM | GI50 [50]: 1.87 µM | TGI [50]: 5.28 µM | GI50 [51]: 8.35 µM | TGI [51]: > 100 µM | GI50 [52]: 2.92 µM | TGI [52]: 13.9 µM | GI50 [53]: 2.24 µM | TGI [53]: 5.74 µM | GI50 [54]: 2.52 µM | TGI [54]: 7.01 µM | GI50 [55]: 3.97 µM | TGI [55]: 14.9 µM | GI50 [56]: 2.18 µM | TGI [56]: 5.54 µM | GI50 [57]: 9.04 µM | TGI [57]: 43.5 µM | GI50 [58]: 13.5 µM | TGI [58]: 28.5 µM

CC[C@]12C=CCN3CC[C@@]4(c5ccc(OC)cc5N(C)[C@H]4[C@@](O)(C(=O)OC)[C@@H]1OC(=O)CCCC[P+](C1CCCCC1)(C1CCCCC1)C1CCCCC1)[C@@H]32
GI50 [1]: 1.88 µM | TGI [1]: 3.74 µM | GI50 [2]: 1.46 µM | TGI [2]: 10.4 µM | GI50 [3]: 0.643 µM | TGI [3]: 6.79 µM | GI50 [4]: 2.55 µM | TGI [4]: 10.5 µM | GI50 [5]: 0.639 µM | TGI [5]: 12.4 µM | GI50 [6]: 2.71 µM | TGI [6]: 12.2 µM | GI50 [59]: 4.4 µM | TGI [59]: 16.1 µM | GI50 [8]: 2.62 µM | TGI [8]: 10.7 µM | GI50 [9]: 1.24 µM | TGI [9]: 5.4 µM | GI50 [10]: 3.17 µM | TGI [10]: 12.9 µM | GI50 [11]: 3.19 µM | TGI [11]: 12.1 µM | GI50 [12]: 1.53 µM | TGI [12]: 3.64 µM | GI50 [13]: 3.13 µM | TGI [13]: 13.1 µM | GI50 [14]: 2.34 µM | TGI [14]: 8.99 µM | GI50 [15]: 1.05 µM | TGI [15]: 8.18 µM | GI50 [16]: 2.73 µM | TGI [16]: 13.8 µM | GI50 [17]: 1.57 µM | TGI [17]: 3.9 µM | GI50 [18]: 0.293 µM | TGI [18]: 1.41 µM | GI50 [19]: 5.43 µM | TGI [19]: 18.9 µM | GI50 [20]: 0.92 µM | TGI [20]: 11.2 µM | GI50 [21]: 3.08 µM | TGI [21]: 14.9 µM | GI50 [22]: 0.377 µM | TGI [22]: 1.23 µM | GI50 [23]: 2.9 µM | TGI [23]: 10.9 µM | GI50 [25]: 3.13 µM | TGI [25]: 16.2 µM | GI50 [26]: 13.3 µM | TGI [26]: 27.4 µM | GI50 [27]: 2.75 µM | TGI [27]: 15.1 µM | GI50 [28]: 1.02 µM | TGI [28]: 3.9 µM | GI50 [29]: 2.45 µM | TGI [29]: 6.55 µM | GI50 [30]: 0.412 µM | TGI [30]: 2.01 µM | GI50 [31]: 1.31 µM | TGI [31]: 10.3 µM | GI50 [32]: 1.39 µM | TGI [32]: 5.36 µM | GI50 [33]: 0.983 µM | TGI [33]: 16.2 µM | GI50 [36]: 16 µM | TGI [36]: 29.6 µM | GI50 [37]: 1.92 µM | TGI [37]: 11.3 µM | GI50 [38]: 0.378 µM | TGI [38]: 1.54 µM | GI50 [39]: 2.2 µM | TGI [39]: 12 µM | GI50 [40]: 2.93 µM | TGI [40]: 11.9 µM | GI50 [41]: 1.72 µM | TGI [41]: 7.9 µM | GI50 [42]: 1.63 µM | TGI [42]: 3.7 µM | GI50 [43]: 3.65 µM | TGI [43]: 14.8 µM | GI50 [44]: 2.77 µM | TGI [44]: 9.91 µM | GI50 [45]: 1.72 µM | TGI [45]: 6.34 µM | GI50 [46]: 1.43 µM | TGI [46]: 3.88 µM | GI50 [47]: 2.94 µM | TGI [47]: 12 µM | GI50 [48]: 16.7 µM | TGI [48]: 30.6 µM | GI50 [49]: 1.93 µM | TGI [49]: 10.9 µM | GI50 [50]: 4.41 µM | TGI [50]: 17.9 µM | GI50 [51]: 16.1 µM | TGI [51]: 30.5 µM | GI50 [52]: 2.61 µM | TGI [52]: 8.67 µM | GI50 [53]: 2.85 µM | TGI [53]: 11 µM | GI50 [54]: 1.38 µM | TGI [54]: 5.25 µM | GI50 [55]: 2.28 µM | TGI [55]: 6.94 µM | GI50 [56]: 3.9 µM | TGI [56]: 13.8 µM | GI50 [57]: 56.5 µM | TGI [57]: > 100 µM | GI50 [58]: 1.36 µM | TGI [58]: 4.66 µM
